Values quoted from earlier work, collected in patent publication US11771661B2, “Method of treating post-traumatic stress disorder” (ICAHN SCHOOL OF MEDICINE AT MOUNT SINAI, priority 2013, dated 2023).

Assays:
NMDA receptors = conditions: read-out: Ki, binding to NMDA receptors; cited from earlier work
[1] = tested on: intractable central neuropathic pain; conditions: in vivo; cited from earlier work

| SMILES | Ki (NMDA receptors) | potency compared with racemic mixture of ketamine [1] |
| --- | --- | --- |
| CN[C@@]1(c2ccccc2Cl)CCCCC1=O [R(−)] | 1100 nM | – |
| CN[C@]1(c2ccccc2Cl)CCCCC1=O [S(+)-ketamine] | 3200 nM | two times more potent |
